Where two headings read alike, the source gives them in different places.
Key:
cytosolic PfcPheRS = details: previously reported; cited from earlier work
[1] = test system: transgenic C. parvum (L482+V482 mixed or wt L482); test: IFN-γ knockout mice infected with transgenic C. parvum, fecal luminescence; type: in vivo, C57BL/6 IFN-γ knockout mice; details: 10 mg/kg for five days (days 4-8 post-infection); day 7
Description: All mouse studies described in this section were approved by the Institutional Animal Care and Use Committee of the University of Georgia and University of Pennsylvania. Cryptosporidium parvum IOWA-II oocysts were purchased from Bunch Grass Farms, Deary, Id., USA. Oocysts were excysted and electroporated with Cas9/guide plasmid and repair DNA template using Lonza Nucleofector 4D device and previously optimized protocols described in Vinayak, S. et al. Nature 523, 477-480, doi:10.1038/nature14651 (2015) and Pawlowic, et al. Curr Protoc Microbiol 46, 20B 22 21-20B 22 32, doi:10.1002/cpmc.33 (2017), each hereby incorporated by reference in their entirety. C57BL/6 IFN-γ knockout mice (Jackson Laboratory) aged 4-6 weeks (n=5) were infected with transfected sporozoites suspended in PBS using surgery described previously or an oral gavage procedure. The oral gavage procedure involved buffering of the acidic stomach with 8% sodium bicarbonate before delivery of sporozoites.
Fecal samples were collected from cages and luminescence measurements were performed as described in Manjunatha, U. H. et al. Nature 546, 376-380, doi:10.1038/nature22337 (2017) and Vinayak, S. et al. Nature 523, 477-480, doi:10.1038/nature14651 (2015), each hereby incorporated by reference in their entirety. […] During passaging, mice were monitored for weight loss, fur ruffling, hunched posture, and inactivity. […]

[2] = test system: C. parvum (Field Isolate) WSU; test: C. parvum field isolate (WSU) growth in HCT-8 cells; type: cell-based; details: Cryptosporidium parvum
Procedure: (§1) Studies using farm C. parvum isolates and the C. hominis TU502 isolate were performed by Calibr at Scripps Research (La Jolla, Calif.) in 1,536-well plates using a slightly modified immunofluorescence assay as described in Love, M. S. et al. PLoS neglected tropical diseases 11, e0005373, doi:10.1371/journal.pntd.0005373 (2017), hereby incorporated by reference in its entirety. HCT-8 cell culture medium was replaced with RPMI 1640 medium supplemented with 2% heat-inactivated horse serum, 100 U·mL^−1 penicillin, and […] 24 h prior to infection with the indicated isolate. The C. parvum Iowa isolate was included as a reference in all experiments. Imaging was performed using a Cellnsight CX5 High Content screening platform (Thermo Scientific) with a 10× objective and acquisition of one microscopic field per well. Images were processed using HCS Studio Scan software, and the selected-object count (HCT-8 cells) and spot count (parasitophorous vacuoles) were analyzed in Genedata Screener (version 13.0; Standard). Dose-response curves and EC50 values were calculated using the Smart Fit function of Genedata Analyzer.

[3] = test system: C. parvum Iowa isolate (Bunch Grass Farm); test: C. parvum Iowa isolate (Bunch Grass Farm) growth in HCT-8 cells, high-content microscopy; type: cell-based; details: Cryptosporidium parvum
Procedure: A high-content microscopy assay was used to measure activity of compounds against C. parvum grown in the human adenocarcinoma cell line HCT-8 (ATCC) as disclosed in Bessoff, K., et al., Antimicrobial agents and chemotherapy 57, 1804-1814, doi:10.1128/AAC.02460-12 (2013), hereby incorporated by reference in its entirety. HCT-8 cells were cultured in 384-well clear-bottomed plates in 50 μL per well of RPMI 1640 medium ([…]), 120 U·mL^−1 penicillin, and 120 μg·mL^−1 streptomycin (ATCC) at 37° C. under 5% CO2. For compound screening and follow-up SAR studies, confluent cell monolayers were infected with C. parvum Iowa isolate oocysts [Bunch Grass Farm (Deary, Id.); ˜5,500 oocysts per well] after inducing excystation by treatment for 10 min at 37° C. with 10 mM HCl and then 10 min at 16° C. in 2 mM sodium taurocholate. Compounds were added at the indicated concentrations 3 h after monolayer infection. After incubation (37° C., 5% CO2) for 48 h, the cells were washed three times with PBS containing 111 mM D-Galactose and fixed by adding an equal volume of 8% formaldehyde in PBS. Cell monolayers were then prepared for microscopy by permeabilizing with 0.1% Triton X-100, washing three times with PBS with 0.1% Tween 20, blocking with 4% bovine serum albumin (BSA) in PBS for 2 h at 37° C. or 4° C. overnight, and staining parasitophorous vacuoles with 1.33 μg·mL^−1 of fluorescein-labeled Vicia villosa lectin (Vector Laboratories) diluted in 1% BSA in PBS with 0.1% Tween 20 for 1 h at 37° C. DNA was then stained by adding Hoechst 33258 (AnaSpec) at a final concentration of 0.09 mM diluted in water, followed by washing five times with PBS containing 0.1% Tween 20. Images were acquired using a Nikon Eclipse TE2000 epifluorescence microscope with an automated stage that was programmed using NIS-Elements Advanced Research software (Nikon) to focus on the center of each well and take a 3×3 composite image using an EXi Blue fluorescence microscopy camera (QImaging) with a 20× objective (numerical aperture 0.45). Nucleus and parasite images were exported separately as tif files and analyzed using NIH ImageJ and previously reported macros, and data analysis and graphing were done using GraphPad Prism software, version 6.01. […]

[4] = test system: C. parvum (Iowa) Sterling; test: C. parvum (Iowa) Sterling growth in HCT-8 cells; type: cell-based; details: Cryptosporidium parvum
Procedure: as §1

SMILES: COc1ccc(NC(=O)N2CCCCN3[C@H](CN(C)C)[C@H](c4ccc(C#Cc5ccccc5)cc4)[C@@H]3C2)cc1 [Compound 11, (8R,9S,10S)-10-((dimethylamino)methyl)-N-(4-methoxyphenyl)-9-(4-(phenylethynyl)phenyl)-1,6-diazabicyclo[6.2.0]decane-6-carboxamide]
- IC50 (cytosolic PfcPheRS): 23 nM
- fecal luciferase activity (parasite shedding) [1]: decrease in luciferase activity
- EC50 [2]: 23 nM
- EC50 ([3]; read-out: C. parvum (Iowa) (1% FBS) BGF EC50): 9 nM
- EC50 ([3]; read-out: C. parvum (Iowa) (10% FBS) BGF EC50): 73 nM
- EC50 ([3]; serum not given, read-out: C. parvum EC50): < 73 nM
- EC50 [4]: 8 nM

Reference: US20230009323A1, “COMPOUNDS AND METHODS FOR THE TREATMENT OF CRYPTOSPORIDIOSIS” (The Broad Institute, Inc., priority 2019, published 2023)
